The record followed here is patent publication US6716883B1, “Composition useful to treat periodontal disease” (priority 1998, dated 2004).

The assay has as its target T1, AhR in SBMC cells (Rattus norvegicus, UniProt P41738).
T1 construct: endogenous in cells; host or cells: rat stromal bone marrow cell line (RSBMC / SBMC)
T1 sequence (P41738 10-853): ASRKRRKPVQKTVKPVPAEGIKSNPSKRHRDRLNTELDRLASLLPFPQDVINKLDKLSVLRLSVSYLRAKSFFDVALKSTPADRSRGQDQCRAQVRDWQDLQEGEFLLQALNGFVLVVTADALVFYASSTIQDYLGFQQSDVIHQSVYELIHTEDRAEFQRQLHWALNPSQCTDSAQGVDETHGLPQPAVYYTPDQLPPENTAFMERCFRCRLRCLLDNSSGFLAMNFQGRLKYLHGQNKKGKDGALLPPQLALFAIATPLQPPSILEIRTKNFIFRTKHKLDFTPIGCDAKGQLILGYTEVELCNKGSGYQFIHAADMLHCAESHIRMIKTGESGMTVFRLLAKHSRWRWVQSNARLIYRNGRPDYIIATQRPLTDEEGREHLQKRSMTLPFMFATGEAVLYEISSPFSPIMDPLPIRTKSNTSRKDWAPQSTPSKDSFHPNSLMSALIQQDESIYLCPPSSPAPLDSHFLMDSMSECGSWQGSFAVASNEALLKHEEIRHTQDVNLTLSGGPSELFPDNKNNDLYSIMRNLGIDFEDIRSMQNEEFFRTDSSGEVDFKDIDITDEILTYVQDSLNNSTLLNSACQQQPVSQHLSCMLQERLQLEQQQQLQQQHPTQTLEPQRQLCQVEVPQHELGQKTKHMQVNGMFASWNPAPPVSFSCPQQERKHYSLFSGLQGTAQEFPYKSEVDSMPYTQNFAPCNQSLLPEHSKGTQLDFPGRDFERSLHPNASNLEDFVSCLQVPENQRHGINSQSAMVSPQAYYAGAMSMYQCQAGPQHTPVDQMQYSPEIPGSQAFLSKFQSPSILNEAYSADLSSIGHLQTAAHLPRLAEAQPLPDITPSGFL
In words: Live whole cell (RSBMC) competitive uptake/binding assay with 3H-TCDD.

One may read the IC50 as the point on the concentration scale where inhibition reaches its midpoint. A low value points to greater potency.

Description: The need for preincubation (see below) may also alter competition kinetics in this type of binding assay. Cells were plated at a density of 10,000 per well in Titertek 96-well plates, and left overnight to attach in medium. […] Cells were preincubated with cold drug one hour prior to addition of radiolabeled TCDD (specific activity 33.4 Ci/mmol; Chemsyn Lab, Kansas) (pilot studies having shown that preincubation was required to detect competition). One set of wells was incubated without cold drug to determine total binding. ^3H-TCDD (10,000 cpm/well in a volume of 10 μl) was added and incubated for 4 hours at room temperature. The media were aspirated and the cells washed 4× with 100 μl of PBS. 100 μl of 0.1N sulphuric acid was added and the cells were incubated at 37° C. overnight to break the cells open. 80 μl of the lysate was added to 5 ml of scintillation fluid and counted in a beta counter.

For the molecule `Clc1cc2c(cc1Cl)Oc1cc(Cl)c(Cl)cc1O2` [TCDD, 2,3,7,8-tetrachlorodibenzo-p-dioxin], the IC50 was roughly 3.7 nM. Where the note is “1 h preincubation with cold drug, 4 h with 3H-TCDD at room temperature”, the “concentration reducing 3H-TCDD binding to background levels” value was found to be 33 nM.
